We go through 1 molecule from patent publication US7566553B2, “Microorganism of Escherichia Sp, or Corynebacterium Sp, comprising foreign NADP dependent glyceraldehyde-3-phosphate dehydrogenase gene and method for producing L-lysine using the same” (CJ Corporation, priority 2004, dated 2009).

What all share (assay): Resistance against lysine analogue AEC, relative growth rate in M9 minimum medium
What all share (type): cell-based, Escherichia coli

One assay concerns E. coli strain CJ40225. The settings on record: absorbance at 562 nm, relative to growth at zero AEC. As for the experimental part:
(§1) An Escherichia coli strain TF1 (Korean laid-open Patent No. 1992-0012444) was grown until the strain entered an exponential growth phase and suspended in a 0.1M phosphate buffer (pH 7.0) or 0.1M citrate buffer solution (pH 5.5). N-methyl-N′-nitro-nitrosoguanidine was added into the suspension to a final concentration of 200-500 μg/mL, reacted at 30° C. for 10-30 minutes, and inoculated into a minimum agar plate containing 1-30 g/L of a lysine analogue (AEC: S-(2-aminoethyl)-L-cysteine) to select an analogue-resistant strain. This strain was named “CJ40225”. The resistance of the strain against the lysine analogue was tested using an M9 minimum medium, and the relative growth rate was measured.
(§2) The used M9 minimum medium contained 4 g of glucose, 12.8 g of Na2HPO4.7H2O, 3 g of KH2PO4, 0.5 g of NaCl, and 1 g of NH4Cl per 1 liter of water.

The subject of assay [1] is Wild type E. coli strain W3110. Particulars: absorbance at 562 nm, relative to growth at zero AEC. As to the method: as §1, §2
The test system of a further assay is E. coli strain TF1. The settings on record: strain TE1 (so in the source), absorbance at 562 nm, relative to growth at zero AEC. As for the experimental part: as §1, §2

In the case of `NCCSC[C@H](N)C(=O)O` [AEC, S-(2-aminoethyl)-L-cysteine], the “Relative Growth Rate (%)” value amounted to 124.3% with E. coli strain CJ40225 (added AEC 5 g/L); 88.4% in the assay on E. coli strain CJ40225 (added AEC 10 g/L); 89.2% in the assay with E. coli strain CJ40225 (added AEC 20 g/L); 73.9% in the assay on E. coli strain CJ40225 (added AEC 40 g/L); 66.3% in assay [1] (added AEC 5 g/L); 39.8% in assay [1] (added AEC 10 g/L). Also, the “Relative Growth Rate (%)” value in assay [1] (added AEC 20 g/L) is given as 7.4%; in the assay with E. coli strain TF1 (added AEC 5 g/L), 103.5%; with E. coli strain TF1 (added AEC 10 g/L), 128.9%; with E. coli strain TF1 (added AEC 20 g/L), 112.5%; in the assay on E. coli strain TF1 (added AEC 40 g/L) it was 17.5%.
